Source: ChEMBL document CHEMBL1139966, “ERbeta ligands. Part 6: 6H-Chromeno[4,3-b]quinolines as a new series of estrogen receptor beta-selective ligands” (Bioorg Med Chem Lett, 2007)

Species: Homo sapiens
Assay: Selectivity for human ERalpha over ERbeta

In the case of Oc1ccc2c(c1)OCc1c-2nc2ccc(O)cc2c1-c1ccc(C(F)(F)F)cc1, the Ratio IC50 is reported as 16.

Oc1ccc2c(c1)OCc1c-2nc2ccc(O)cc2c1Cl was tested, and the Ratio IC50 was 27.

For C#Cc1c2c(nc3ccc(O)cc13)-c1ccc(O)cc1OC2, the Ratio IC50 was 12.

In the case of COc1cccc(-c2c3c(nc4ccc(O)cc24)-c2ccc(O)cc2OC3)c1, the Ratio IC50 is reported as 10.

Compound C#Cc1cc(-c2ccc(O)cc2)nc2ccc(O)cc12 has a Ratio IC50 of 20.

CCc1c2c(nc3ccc(O)cc13)-c1ccc(O)cc1OC2 gave a Ratio IC50 of 14.

Work on N#Cc1ccc(-c2c3c(nc4ccc(O)cc24)-c2ccc(O)cc2OC3)cc1 yielded a Ratio IC50 of 16.

CCc1cc(-c2ccc(O)cc2)nc2ccc(O)cc12 was tested, and the Ratio IC50 was 12.

COc1ccc(-c2c3c(nc4ccc(O)cc24)-c2ccc(O)cc2OC3)cc1 gave a Ratio IC50 of 6.

Work on C=Cc1c2c(nc3ccc(O)cc13)-c1ccc(O)cc1OC2 yielded a Ratio IC50 of 24.

Work on N#Cc1cccc(-c2c3c(nc4ccc(O)cc24)-c2ccc(O)cc2OC3)c1 yielded a Ratio IC50 of 8.

For Oc1ccc(-c2cc(Cl)c3cc(O)ccc3n2)cc1, the Ratio IC50 was 46.

With N#Cc1c2c(nc3ccc(O)cc13)-c1ccc(O)cc1OC2 the Ratio IC50 was 16.

With Oc1ccc2c(c1)OCc1c-2nc2ccc(O)cc2c1-c1cccc(Cl)c1 the Ratio IC50 was 4.

Oc1ccc2c(c1)OCc1c-2nc2ccc(O)cc2c1-c1ccc(Cl)cc1 gave a Ratio IC50 of 15.

Work on Oc1ccc2c(c1)OCc1c-2nc2ccc(O)cc2c1Br yielded a Ratio IC50 of 16.
